In patent publication US8481458B2, “Adjuvant for pesticides” (priority 2002, dated 2013):

Assays:
Alternaria solani = assay: Fungicide for control of Early Blight on tomatoes; format: in vivo; conditions: tomato plants innoculated with the fungi; ratings after one week
From the text: The tomato plants were innoculated with the fungi. The ratings were made after one week on the percent leaves infected with Alternaria and also the number with bad damage—necrosis.

Xanthomonas campestris = assay: Bactericide on bacterial leaf spot on tomatoes; format: in vivo; conditions: tomato plants innoculated with the bacteria; ratings after two weeks
From the text: The tomato plants were innoculated with the bacteria. […] The ratings were made after two weeks on the percent leaves infected.

potato vines = assay: Dessication of potato vines before harvest (speed); format: in vivo; conditions: for Defol %: at the time printed in column Hour; for Hour: time at which the printed Defol % was seen
From the text: This example was used to how various permeabilizers are able to improve the speed in which various active components are able to obtain their desired effects on treated plants. In this example, a combination of oxalic acid and citric acid (Adjuvant 1) was used in combination with the harvest aid chemicals paraquat and diquat for the dessication of potato vines before harvest and compared to the commercial rates paraquat and diquat.

[1] = tested on: fireblight on Southern Crepe Myrtle; assay: Streptomycin for control of fireblight on Southern Crepe Myrtle; conditions: infected plants sprayed until wet; ratings after two days
cotton = assay: Cotton defoliation with oxalic acid, EDTA, citric acid as adjuvants, field plots; format: in vivo; conditions: Day 7 after spraying, test size field plots
Procedure: Oxalic acid (Adj II), EDTA (Adj III), and citric acid (Adj IV) were used as an adjuvants with harvest aid chemicals and compared to the commercial products ethephon and ethephon plus cyclanilide. The comparison was for defoliation only at 7 days after spraying on cotton. The tests were conducted on test size field plots, at dosages of 1 pound or 0.5 pounds per acre (#/ac).

Eastern Tent caterpillar = assay: Ingestion insecticide sprayed on the tent; format: in vivo; conditions: evaluated 1 day after application
Procedure: This test involved the evaluation of an ingestion insecticide on the Eastern Tent caterpillar. The insecticide was mixed in a tank at the shown rate and sprayed on the tent, and the evaluation was performed after 1 day following application.

`N#Cc1c(Cl)c(Cl)c(Cl)c(C#N)c1Cl` [Chlorothalonil 2.5 pt/ac, chlorothalonil] was tested, and the “Infected Leaflets” value (Alternaria solani) was 60%, the “Infected Leaves” value (Alternaria solani) was 42% and the “Leaflets with >50% Necrosis” value (Alternaria solani) was 42%.
For `[Cu+2].[OH-].[OH-]` [Copper 2#/acre, copper hydroxide], the “Percent Leaves Infected” value (Xanthomonas campestris) was 63%.
`C[n+]1ccc(-c2cc[n+](C)cc2)cc1` [paraquat 2 qt/ac, paraquat] gave a Defol % (potato vines) of 98% and a Hour (potato vines) of 36 h.
For `[H]/N=C(/N)N[C@H]1[C@H](O)[C@@H](O)[C@H](O[C@@H]2O[C@@H](C)[C@](O)(C=O)[C@H]2O[C@@H]2O[C@@H](CO)[C@H](O)[C@@H](O)[C@@H]2NC)[C@@H](N/C(N)=N\[H])[C@@H]1O` [Streptomycin, streptomycin], the “Level Required for Control” value [1] was 60 ppm.
`c1cc[n+]2c(c1)-c1cccc[n+]1CC2` [diquat 2 qt/ac, diquat] showed a Defol % (potato vines) of 96% and a Hour (potato vines) of 24 h.
`O=P(O)(O)CCCl` [eth 1#/ac, ethephon] gave a Defol % (cotton) of 72%.
In the case of `CS/C(C)=N\OC(=O)N(C)SN(C)C(=O)O/N=C(\C)SC` [Thiodicarb 0.1%, Thiodicarb], the “Insecticide Efficacy” value (Eastern Tent caterpillar) is reported as 32%.
